Results as given in patent US20110195147A1, “IRON SOURCE PRODUCT IN THE FORM OF CAPSULES AND PROCESS FOR THEIR PREPARATION” (AB-BIOTICS S.A., priority 2008, published 2011).

Test system: HELA cell line
Experiment: Capsule cytotoxicity, EZ4U cell proliferation and cytotoxicity assay
Conditions: for % Viability 24 h: 24 h incubation; for % Viability 72 h: 72 h incubation
Description: The test involved incubating cells from the HELA cell line with the substances against which the cytotoxicity was going to be tested, this test being commonly used as a way to check the toxicity. The tested compounds included the capsules, as well as their main constituents separately: the iron salt used in the capsules (ferric saccharate), and sodium alginate. A negative control, which contained HELA growth medium alone, was also prepared, and used as the reference growth.
The test media were prepared under sterile conditions. Capsules prepared as in Example 1 (Capsule 0; batch 2 of Example 3) were sterilised in an autoclave (20 min, 110° C.). Using sterile material, 72 mg of capsules (capsules medium), 17 mg of ferric saccharate (iron salt medium) and 18 mg of sodium alginate (alginate medium) were each dissolved in 50 mL of HELA growth medium. […] 1:1, 1:10 and 1:100 dilutions of each of the test media were prepared by diluting the following amounts of capsules, iron salt or alginate medium with fresh HELA growth medium: • 1:1 20 μL+0 μL fresh HELA medium • 1:10 2 μL+18 μL fresh HELA medium • 1:100 0.2 μL+19.8 μL fresh HELA medium
3500 HeLa cells were cultured in 36 wells of two 96 well plates: 9 control wells and 27 for triplicates of 3 concentrations of 3 products. Medium was added to each well up to 100 μL. The cells were incubated at 37° C. for 24 h. 20 μL of each test media and 80 μL of fresh medium were added to each well. In the controls only 100 μL of fresh medium were added. One of the plates was incubated for 24 h and the other one for 72 h. The viability of the cells was measured after 24 and 72 h of incubation using the EZ4U non-radioactive cell proliferation and cytotoxicity assay (Biomedica Medizinproducte GmbH).
The results were expressed as percentage of growth with respect to the controls, i. e. as the percentage of viability, which is computed as the number of living cells in any of the test solutions (capsules, ferric saccharate or sodium alginate) divided by the number of living cells in the negative control, and expressed as percentage.

Substance | % Viability 24 h (dilution 1:1, relative to negative control) | % Viability 24 h (dilution 1:10) | % Viability 24 h (dilution 1:100) | % Viability 72 h (dilution 1:1) | % Viability 72 h (dilution 1:10) | % Viability 72 h (dilution 1:100) | cytotoxicity (in words)
ferric saccharate [Iron salt] | 76.3% ± 9.7 | 101.7% ± 8.5 | 95.7% ± 3.2 | 66.8% ± 23.0 | 62.0% ± 15.7 | 68.7% ± 15.3 | 
sodium alginate |  |  |  |  |  |  | No toxicity was observed
